In ChEMBL document CHEMBL1135151, “Preparation, characterization, molecular modeling and in vitro activity of paclitaxel-cyclodextrin complexes” (2002):

Tests used:
Format in all cases: functional, Homo sapiens
[1] = tested on: DU-145; assay: Tested for in vitro activity against DU 145 cells at PTX dilution factor 1:100, expressed as percentage of cellular survival as a function of drug dilution
[2] = tested on: DU-145; assay: Tested for in vitro activity against DU 145 cells at PTX dilution factor 1:500, expressed as percentage of cellular survival as a function of drug dilution
[3] = tested on: DU-145; assay: Tested for in vitro activity against DU 145 cells at PTX dilution factor 1:50, expressed as percentage of cellular survival as a function of drug dilution
[4] = tested on: DU-145; assay: Tested for in vitro activity against DU 145 cells at PTX dilution factor 1:1000, expressed as percentage of cellular survival as a function of drug dilution

| Structure (SMILES) | Survival [1] | Survival [2] | Survival [3] | Survival [4] |
| --- | --- | --- | --- | --- |
| COCC1O[C@H]2OC3C(COC)O[C@@H](OC4C(COC)O[C@@H](OC5C(COC)O[C@@H](OC6C(COC)O[C@@H](OC7C(COC)O[C@@H](OC8C(COC)O[C@@H](OC1[C@@H](O)[C@@H]2OC)[C@@H](OC)[C@H]8O)[C@@H](OC)[C@H]7O)[C@@H](O)[C@H]6OC)[C@@H](OC)[C@H]5O)[C@@H](OC)[C@H]4O)[C@@H](OC)[C@H]3O (stereo partly drawn) | 90.6% | 90.2% | 88.9% | 91.5% |
| CC(=O)O[C@H]1C(=O)[C@@]2(C)C([C@H](OC(=O)c3ccccc3)[C@]3(O)C[C@H](OC(=O)[C@H](O)[C@@H](NC(=O)c4ccccc4)c4ccccc4)C(C)=C1C3(C)C)[C@]1(OC(C)=O)CO[C@@H]1C[C@@H]2O.COCC1O[C@H]2OC3C(COC)O[C@@H](OC4C(COC)O[C@@H](OC5C(COC)O[C@@H](OC6C(COC)O[C@@H](OC7C(COC)O[C@@H](OC8C(COC)O[C@@H](OC1[C@@H](OC)[C@@H]2OC)[C@@H](OC)[C@H]8OC)[C@@H](OC)[C@H]7OC)[C@@H](OC)[C@H]6OC)[C@@H](OC)[C@H]5OC)[C@@H](OC)[C@H]4OC)[C@@H](OC)[C@H]3OC (stereo partly drawn) | 61.3% | 68.7% | 43.2% | 69.3% |
| COCC1O[C@H]2OC3C(COC)O[C@@H](OC4C(COC)O[C@@H](OC5C(COC)O[C@@H](OC6C(COC)O[C@@H](OC7C(COC)O[C@@H](OC8C(COC)O[C@@H](OC1[C@@H](OC)[C@@H]2OC)[C@@H](OC)[C@H]8OC)[C@@H](OC)[C@H]7OC)[C@@H](OC)[C@H]6OC)[C@@H](OC)[C@H]5OC)[C@@H](OC)[C@H]4OC)[C@@H](OC)[C@H]3OC (stereo partly drawn) | 85.5% | 87% | 79.7% | 90.1% |
| CC(=O)O[C@H]1C(=O)[C@@]2(C)C([C@H](OC(=O)c3ccccc3)[C@]3(O)C[C@H](OC(=O)[C@H](O)[C@@H](NC(=O)c4ccccc4)c4ccccc4)C(C)=C1C3(C)C)[C@]1(OC(C)=O)CO[C@@H]1C[C@@H]2O.COCC1O[C@H]2OC3C(COC)O[C@@H](OC4C(COC)O[C@@H](OC5C(COC)O[C@@H](OC6C(COC)O[C@@H](OC7C(COC)O[C@@H](OC8C(COC)O[C@@H](OC1[C@@H](O)[C@@H]2OC)[C@@H](OC)[C@H]8O)[C@@H](OC)[C@H]7O)[C@@H](O)[C@H]6OC)[C@@H](OC)[C@H]5O)[C@@H](OC)[C@H]4O)[C@@H](OC)[C@H]3O (stereo partly drawn) | 46.3% | 51.1% | 35.2% | 61.3% |
| CC(=O)O[C@H]1C(=O)[C@@]2(C)C([C@H](OC(=O)c3ccccc3)[C@]3(O)C[C@H](OC(=O)[C@H](O)[C@@H](NC(=O)c4ccccc4)c4ccccc4)C(C)=C1C3(C)C)[C@]1(OC(C)=O)CO[C@@H]1C[C@@H]2O.OCC1O[C@H]2OC3C(CO)O[C@@H](OC4C(CO)O[C@@H](OC5C(CO)O[C@@H](OC6C(CO)O[C@@H](OC7C(CO)O[C@@H](OC8C(CO)O[C@@H](OC1[C@@H](O)[C@@H]2O)[C@@H](O)[C@H]8O)[C@@H](O)[C@H]7O)[C@@H](O)[C@H]6O)[C@@H](O)[C@H]5O)[C@@H](O)[C@H]4O)[C@@H](O)[C@H]3O (stereo partly drawn) | 22.3% | 23.1% | 12.2% | 24.2% |
| OC[C@H]1O[C@@H]2O[C@H]3[C@H](O)[C@@H](O)[C@@H](O[C@H]4[C@H](O)[C@@H](O)[C@@H](O[C@H]5[C@H](O)[C@@H](O)[C@@H](O[C@H]6[C@H](O)[C@@H](O)[C@@H](O[C@H]7[C@H](O)[C@@H](O)[C@@H](O[C@H]8[C@H](O)[C@@H](O)[C@@H](O[C@H]1[C@H](O)[C@H]2O)O[C@@H]8CO)O[C@@H]7CO)O[C@@H]6CO)O[C@@H]5CO)O[C@@H]4CO)O[C@@H]3CO [BETADEX] | 96.6% | 96.4% | 96.4% | 96.8% |
| CC(=O)O[C@H]1C(=O)[C@@]2(C)[C@H]([C@H](OC(=O)c3ccccc3)[C@]3(O)C[C@H](OC(=O)[C@H](O)[C@@H](NC(=O)c4ccccc4)c4ccccc4)C(C)=C1C3(C)C)[C@]1(OC(C)=O)CO[C@@H]1C[C@@H]2O [PACLITAXEL] | 12.1% | 43.3% | 11.6% | 46% |
